Reference: US10294202B2, “Pyrrolidinones as herbicides” (FMC Corporation, priority 2013, dated 2019)

Legend:
mustard, wild = test: Test D pre-/postemergence herbicide test; format: in vivo, Sinapis arvensis; details: for Plant response rating: Mustard, Wild, scale 0 to 100; for Plant response rating, Mustard, Wild: scale 0 to 100 (0 no effect, 100 complete control)
Text: (§1) Seeds of plant species selected from bluegrass (annual bluegrass, Poa annua), blackgrass (Alopecurus myosuroides), canarygrass (littleseed canarygrass, Phalaris minor), chickweed (common chickweed, Stellaria media), galium (catchweed bedstraw, Galium aparine), bromegrass, downy (downy bromegrass, Bromus tectorum), field poppy (Papaver rhoeas), field violet (Viola arvensis), foxtail, green (green foxtail, Setaria viridis), deadnettle (henbit deadnettle, Lamium amplexicaule), ryegrass, Italian (Italian ryegrass, Lolium multiflorum), kochia (Kochia scoparia), lambsquarters (Chenopodium album), oilseed rape (Brassica napus), pigweed (Amaranthus retroflexus), chamomile (scentless chamomile, Matricaria inodora), Russian thistle (Salsola kali), speedwell (bird's-eye speedwell, Veronica persica), barley, spring (spring barley, Hordeum vulgare), wheat, spring (spring wheat, Triticum aestivum), buckwheat, wild (wild buckwheat, Polygonum convolvulus), mustard, wild (wild mustard, Sinapis arvensis), oat, wild (wild oat, Avena fatua), radish, wild (wild radish, Raphanus raphanistrum), […]), barley, winter (winter barley, Hordeum vulgare), and wheat, winter (winter wheat, Triticum aestivum) were planted into a silt loam soil and treated preemergence with test chemicals formulated in a non-phytotoxic solvent mixture which included a surfactant. At the same time, these species were planted in pots containing Redi-Earth® planting medium (Scotts Company, 14111 Scottslawn Road, Marysville, Ohio 43041) comprising spaghnum peat moss, vermiculite, wetting agent and starter nutrients and treated with postemergence applications of the test chemicals formulated in the same manner. Plants ranged in height from 2 to 18 cm (1- to 4-leaf stage). Treated plants and controls were maintained in a controlled growth environment for 7 to 21 days after which time all species were compared to controls and visually evaluated. Plant response ratings, summarized in Table D, are based on a scale of 0 to 100 where 0 is no effect and 100 is complete control. A dash (-) response means no test result.

chamomile = test: Test D pre-/postemergence herbicide test; format: in vivo, Matricaria inodora; details: for Plant response rating: Chamomile, scale 0 to 100; for Plant response rating, Chamomile: scale 0 to 100 (0 no effect, 100 complete control)
Text: as §1

surinam grass = test: Test C pre-/postemergence herbicide test; format: in vivo, Brachiaria decumbens
Text: (§2) Seeds of plant species selected from blackgrass (Alopecurus myosuroides), ryegrass, Italian (Italian ryegrass, Lolium multiflorum), wheat (winter wheat, Triticum aestivum), galium (catchweed bedstraw, Galium aparine), corn (Zea mays), crabgrass, large (large crabgrass, Digitaria sanguinalis), foxtail, giant (giant foxtail, Setaria faberii), johnsongrass (Sorghum halepense), lambsquarters (Chenopodium album), morningglory (Ipomoea coccinea), nutsedge, yellow (yellow nutsedge, Cyperus esculentus), pigweed (Amaranthus retroflexus), ragweed (common ragweed, Ambrosia elatior), soybean (Glycine max), barnyardgrass (Echinochloa crus-galli), oilseed rape (Brassica napus), waterhemp (common waterhemp, Amaranthus rudis), kochia (Kochia scoparia), oat, wild (wild oat, Avena fatua), surinam grass (Brachiaria decumbens), foxtail, green (green foxtail, Setaria viridis), goosegrass (Eleusine indica), bromegrass, downy (downy bromegrass, Bromus tectorum), nightshade (eastern black nightshade, Solanum ptycanthum), cocklebur (common cocklebur, Xanthium strumarium), cupgrass, woolly (woolly cupgrass, Eriochloa villosa), bermudagrass (Cynodon dactylon), sunflower, (common oilseed sunflower, Helianthus annuus), Russian thistle (Salsola kali) and velvetleaf (Abutilon theophrasti) were planted into a blend of loam soil and sand and treated preemergence with test chemicals formulated in a non-phytotoxic solvent mixture which included a surfactant. At the same time, plants selected from these crop and weed species and also barley (winter barley, Hordeum vulgare), […]), chickweed (common chickweed, Stellaria media), deadnettle (henbit deadnettle, Lamium amplexicaule), and canarygrass (littleseed canarygrass, Phalaris minor) were planted in pots containing Redi-Earth® planting medium (Scotts Company, 14111 Scottslawn Road, Marysville, Ohio 43041) comprising spaghnum peat moss, vermiculite, wetting agent and starter nutrients and treated with postemergence applications of test chemicals formulated in the same manner. Plants ranged in height from 2 to 18 cm (1- to 4-leaf stage) for postemergence treatments. Treated plants and controls were maintained in a greenhouse for 13 to 15 days, after which time all species were compared to controls and visually evaluated. Plant response ratings, summarized in Table C, are based on a scale of 0 to 100 where 0 is no effect and 100 is complete control. A dash (-) response means no test result.

goosegrass = test: Test C pre-/postemergence herbicide test; format: in vivo, Eleusine indica
Text: as §2

[1] = Preemergence, 62 g ai/ha, scale 0 to 100
[2] = Preemergence, 125 g ai/ha, scale 0 to 100 (0 no effect, 100 complete control)
[3] = Preemergence, 31 g ai/ha, scale 0 to 100 (0 no effect, 100 complete control)
[4] = Postemergence, 16 g ai/ha, scale 0 to 100 (0 no effect, 100 complete control)
[5] = Postemergence, 31 g ai/ha, scale 0 (no effect) to 100 (complete control)
[6] = Postemergence, 62 g ai/ha, scale 0 to 100 (0 no effect, 100 complete control)
[7] = Postemergence, 125 g ai/ha, scale 0 to 100 (0 no effect, 100 complete control)
[8] = Preemergence, 16 g ai/ha, scale 0 to 100
[9] = Postemergence, 250 g ai/ha, scale 0 to 100 (0 no effect, 100 complete control)
[10] = Preemergence, 31 g ai/ha, scale 0 to 100, 0 is no effect and 100 is complete control

SMILES | Plant response rating (mustard, wild; Postemergence, 31 g ai/ha) | Plant response rating (mustard, wild; Postemergence, 125 g ai/ha) | Plant response rating, Mustard, Wild (mustard, wild; Preemergence, 62 g ai/ha) | Plant response rating, Mustard, Wild (mustard, wild; Preemergence, 31 g ai/ha) | Plant response rating (mustard, wild; Preemergence, 125 g ai/ha) | Plant response rating (mustard, wild; Preemergence, 250 g ai/ha) | Plant response rating (chamomile; Postemergence, 31 g ai/ha) | Plant response rating (chamomile; Postemergence, 62 g ai/ha) | Plant response rating (chamomile; Postemergence, 125 g ai/ha) | Plant response rating, Chamomile (chamomile; Preemergence, 62 g ai/ha) | Plant response rating, Chamomile (chamomile; Preemergence, 31 g ai/ha) | Plant response rating, Surinam Grass (surinam grass; [1]) | Plant response rating, Surinam Grass (surinam grass; [2]) | Plant response rating, Goosegrass (goosegrass; [1]) | Plant response rating, Goosegrass (goosegrass; [2]) | Goosegrass plant response rating (goosegrass; [3]) | Plant response rating, Surinam Grass (surinam grass; [5]) | Plant response rating, Surinam Grass (surinam grass; [6]) | Plant response rating, Surinam Grass (surinam grass; [7]) | Plant response rating, Goosegrass (goosegrass; [5]) | further results
O=C1NCC(c2ccc(F)c(F)c2)C1C(=O)Nc1ccccc1C(F)(F)F (racemic) [Compound 6] | 0 | 0 | 0 | 0 | 10 | 20 | 0 | 0 | 0 | 30 | 0 | – | – | – | – | – | – | – | – | – | Plant response rating (mustard, wild; Postemergence, 16 g ai/ha): 0; Plant response rating (mustard, wild; Postemergence, 250 g ai/ha): 0; Plant response rating, Mustard, Wild (mustard, wild; Preemergence, 16 g ai/ha): 0; Plant response rating (chamomile; Postemergence, 16 g ai/ha): 0; Plant response rating (chamomile; Postemergence, 250 g ai/ha): 0; Plant response rating, Chamomile (chamomile; Preemergence, 16 g ai/ha): 0; Plant response rating (chamomile; Preemergence, 125 g ai/ha): 70; Plant response rating (chamomile; Preemergence, 250 g ai/ha): 90
O=C1NCC(c2ccc(F)c(C(F)(F)F)c2)C1C(=O)Nc1cccc(F)c1F (racemic) [Compound 77] | – | – | 20 | 0 | 25 | 45 | – | – | – | – | – | – | – | – | – | – | – | – | – | – | –
O=C1NCCC1C(=O)N(c1ccc(F)c(F)c1)c1ccccc1F (stereo not shown) [Compound 5, N-(3,4-difluorophenyl)-N-(2-fluorophenyl)-2-oxo-3-pyrrolidinecarboxamide] | – | – | – | – | – | – | – | – | – | – | – | 85 | 95 | 0 | 0 | 0 | – | – | – | – | –
O=C1NCC(c2cc(F)c(F)c(F)c2)C1C(=O)Nc1cccc(F)c1F (stereo not shown) [Compound 48] | – | – | – | – | – | – | – | – | – | – | – | 75 | 85 | 10 | 15 | 0 | 5 | 25 | 25 | 10 | Plant response rating, Surinam Grass (surinam grass; [4]): 0; Plant response rating, Surinam Grass (surinam grass; [8]): 10; Plant response rating, Goosegrass (goosegrass; [4]): 10; Plant response rating, Goosegrass (goosegrass; [6]): 10; Plant response rating, Goosegrass (goosegrass; [7]): 10; Plant response rating, Goosegrass (goosegrass; [8]): 0
O=C1NCC(c2cc(F)c(F)cc2F)C1C(=O)Nc1cccc(F)c1F (stereo not shown) [Compound 50] | 60 | 40 | 0 | – | 80 | – | 0 | 0 | 0 | 0 | 0 | – | – | – | – | – | 5 | 5 | 5 | 25 | Plant response rating (mustard, wild; Postemergence, 16 g ai/ha): 40; Plant response rating, Mustard, Wild (mustard, wild; Preemergence, 16 g ai/ha): 50; Plant response rating, Surinam Grass (surinam grass; [9]): 15; Plant response rating (chamomile; Postemergence, 16 g ai/ha): 0; Plant response rating, Chamomile (chamomile; Preemergence, 16 g ai/ha): 0; Plant response rating (chamomile; Preemergence, 125 g ai/ha): 5; Plant response rating, Goosegrass (goosegrass; [6]): 25; Plant response rating, Goosegrass (goosegrass; [7]): 25; Plant response rating, Goosegrass (goosegrass; [9]): 25
O=C1NCC(c2ccc(F)c(Cl)c2)C1C(=O)Nc1ccccc1F (stereo not shown) [Compound 60] | – | – | – | – | – | – | – | – | – | – | – | 70 | 70 | 0 | 0 | 0 | 0 | 0 | 0 | 0 | Plant response rating, Goosegrass (goosegrass; [6]): 0; Plant response rating, Goosegrass (goosegrass; [7]): 0
O=C1NCC(c2cccc(OC(F)(F)F)c2)C1C(=O)Nc1ccccc1F (stereo not shown) [Compound 69] | – | – | – | – | – | – | – | – | – | – | – | 75 | 85 | 40 | 40 | – | – | – | – | – | Surinam Grass plant response rating (surinam grass; [10]): 60; Plant response rating (scale of 0 to 100), Surinam Grass (surinam grass; Preemergence, 250 g ai/ha): 85; Goosegrass plant response rating (goosegrass; [10]): 20; Plant response rating (scale of 0 to 100), Goosegrass (goosegrass; Preemergence, 250 g ai/ha): 75
O=C1NCC(c2ccc(C(F)(F)F)cc2)C1C(=O)Nc1ccccc1F (stereo not shown) [Compound 231] | 35 | 65 | 10 | 0 | – | 15 | 20 | 25 | 50 | 75 | 75 | – | – | – | – | – | – | – | – | – | Plant response rating (mustard, wild; Postemergence, 62 g ai/ha): 65; Plant response rating (mustard, wild; Postemergence, 250 g ai/ha): 75; Plant response rating, Mustard, Wild (mustard, wild; Preemergence, 125 g ai/ha): 0; Plant response rating (chamomile; Postemergence, 250 g ai/ha): 50; Plant response rating, Chamomile (chamomile; Preemergence, 125 g ai/ha): 80; Plant response rating (chamomile; Preemergence, 250 g ai/ha): 100
